Measurements published in ChEMBL document CHEMBL1201862, “PubChem BioAssay data set” (2004).
Calls of active or inactive are those of the source. For most assays here, no stated cut-off is given here; in the data, actives have a measured EC50 and inactives only a lower limit.

How the values were obtained:
[1] = Luminescence Cell-Based Dose Retest to Confirm Inhibitors of Cancer Stem Cells. [Related pubchem assays (depositor defined):AID2717, AID2721]; format: functional; settings: Homo sapiens
[2] = molecular target: T1, Heat shock factor protein 1 (Mus musculus, UniProt P38532); assay: decrease of HSF1-responsive luciferase luminescence – cell-based, NIH3T3, dose retest, confirmation (AID 2382); format: functional;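 further: NIH3T3 fibroblasts with HSF1-driven luciferase reporter stressed by proteasome inhibitor MG132; luminescence from HSF1-driven luciferase expression after 8 hours of MG132 stress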
T1 sequence (P38532 whole entry): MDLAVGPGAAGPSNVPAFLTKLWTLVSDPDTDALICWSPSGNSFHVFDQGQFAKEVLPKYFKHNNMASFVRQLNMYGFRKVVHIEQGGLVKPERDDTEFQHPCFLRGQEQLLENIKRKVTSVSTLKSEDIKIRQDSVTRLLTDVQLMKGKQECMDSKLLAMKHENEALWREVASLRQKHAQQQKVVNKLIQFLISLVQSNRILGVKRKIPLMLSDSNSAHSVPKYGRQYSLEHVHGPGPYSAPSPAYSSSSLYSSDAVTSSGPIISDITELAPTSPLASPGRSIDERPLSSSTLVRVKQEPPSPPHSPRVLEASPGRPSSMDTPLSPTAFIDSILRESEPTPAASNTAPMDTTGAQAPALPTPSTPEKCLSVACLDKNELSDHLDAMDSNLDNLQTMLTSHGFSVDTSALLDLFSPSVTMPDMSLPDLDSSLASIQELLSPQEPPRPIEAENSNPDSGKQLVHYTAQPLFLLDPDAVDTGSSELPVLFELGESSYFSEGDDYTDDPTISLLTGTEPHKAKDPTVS

Streptokinase A = molecular target: T2, Streptokinase A (Streptococcus pyogenes serotype M1, UniProt P10520); assay: viability-normalized secreted streptokinase activity reduction – plasminogen activation absorbance, OD405, dose response (AID 1914); format: functional, Streptococcus pyogenes M1 GAS;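 further: secreted streptokinase activity via plasminogen activation per viability signal from cell pellet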
T2 sequence (P10520 whole entry): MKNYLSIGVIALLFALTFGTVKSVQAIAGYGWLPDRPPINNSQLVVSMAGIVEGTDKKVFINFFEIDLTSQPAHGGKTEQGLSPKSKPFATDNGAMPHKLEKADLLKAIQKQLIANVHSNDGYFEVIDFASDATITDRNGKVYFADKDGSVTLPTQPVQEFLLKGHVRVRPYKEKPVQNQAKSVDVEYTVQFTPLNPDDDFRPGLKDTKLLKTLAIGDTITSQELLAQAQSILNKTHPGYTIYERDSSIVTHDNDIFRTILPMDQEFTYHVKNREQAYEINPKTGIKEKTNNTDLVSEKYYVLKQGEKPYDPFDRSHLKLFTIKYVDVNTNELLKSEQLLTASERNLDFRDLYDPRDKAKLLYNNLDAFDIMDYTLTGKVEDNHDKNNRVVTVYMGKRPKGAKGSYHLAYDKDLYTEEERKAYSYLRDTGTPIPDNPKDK

[3] = test system: Streptococcus sp. 'group A'; assay: Streptococcus pyogenes SK(-)GAS viability under kanamycin – luminescence, BacTiterGlo, confirmation, counter-screen for streptokinase expression inhibitor project, dose response (AID 1900); format: functional, organism-based
Streptococcus = assay: GAS UMAA2166 growth inhibition – luminescence, BacTiterGlo, counter-screen for streptokinase expression inhibitor project, dose response (AID 1915); format: functional, organism-based;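 further: potency for reduction of bacterial viability or growth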
Cytochrome P450 2D6 = Cytochrome P450 2D6 (Homo sapiens, UniProt P10635);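 further: CYP2D6 member of a cytochrome P450 panel assay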
[4] = Trypanosoma cruzi growth suppression in host cells – NIH3T3 host cells, beta-gal luminescence, confirmation (AID 2044); format: functional, cell-based;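 further: intracellular parasites grown in NIH/3T3 mouse fibroblasts as host cells; luminescent beta-galactosidase reporter signal from transgenic T. cruzi replicating inside host cells; inhibitors lower the luminescence signal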
[5] = NIH3T3 cell viability loss – ATP luminescence, mouse fibroblasts, counter-screen, dose response (AID 2010); format: functional, cell-based;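 further: cells exposed to compound for about 90 hours before reading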
[6] = luciferase reporter signal suppression in cells – H4 neuroglioma cells, luminescence, dose response (AID 1990); format: functional, cell-based
[7] = Luminescence Cell-Based Dose Response HTS to Identify Inhibitors of 5'UTR Stem-Loop Driven Prion Protein mRNA Translation in H4 Neuroglioblastoma Cells. [Related pubchem assays: 1827 (Project Summary), 1813 (Primary HTS)]; format: functional
INS1 = assay: INS-1E survival protection against cytokine death – cell-based, luminescence, retest, dose response (AID 449756); format: functional; settings: Rattus norvegicus;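 further: cell death triggered by IL-1 beta plus TNF-alpha plus IFN-gamma mixture; protective hits raise ATP signal compared with cytokine alone wells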

Cytochrome P450 2D6, sequence (P10635 whole entry): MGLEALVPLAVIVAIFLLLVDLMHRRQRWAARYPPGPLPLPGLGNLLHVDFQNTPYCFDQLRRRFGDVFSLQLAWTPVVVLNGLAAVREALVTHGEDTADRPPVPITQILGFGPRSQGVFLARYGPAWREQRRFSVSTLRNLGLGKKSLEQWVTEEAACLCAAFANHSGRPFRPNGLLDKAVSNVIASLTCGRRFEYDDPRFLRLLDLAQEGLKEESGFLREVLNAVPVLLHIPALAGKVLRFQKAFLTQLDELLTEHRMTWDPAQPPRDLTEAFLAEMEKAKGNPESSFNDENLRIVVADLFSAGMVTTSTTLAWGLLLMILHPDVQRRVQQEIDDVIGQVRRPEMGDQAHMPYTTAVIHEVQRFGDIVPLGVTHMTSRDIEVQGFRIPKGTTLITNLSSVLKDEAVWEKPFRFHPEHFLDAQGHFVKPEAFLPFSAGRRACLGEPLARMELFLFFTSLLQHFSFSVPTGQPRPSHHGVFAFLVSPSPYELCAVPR

CCN1CCN(C(S)=Nc2sc(C)c(-c3ccccc3)c2C(=O)OC)CC1
AC50 [1]: 3.65 µM (active)

NC(=O)COc1ccc(-n2cnnn2)cc1
EC50 [2]: > 195 µM (not active)

Cc1ccc(C(=O)N2CCOCC2)cc1Cl
EC50 (Streptokinase A): > 150 µM (not active)
EC50 [3]: > 150 µM (not active)
EC50 (Streptococcus): > 150 µM (not active)

COC(=O)c1ccccc1NC(=O)c1cc2nc(C3CC3)cc(C(F)(F)F)n2n1
AC50 (Cytochrome P450 2D6): 3.16 µM (inconclusive)

CC(/C=C/c1ccc(N(C)C)cc1)=N\NC1=NC(=O)CC(C(=O)Nc2ccccc2)S1 (stereo unspecified)
EC50 (Streptokinase A): > 150 µM (not active)
EC50 [3]: 2.94 µM (active)
EC50 (Streptococcus): 9.04 µM (active)

CCOC(=O)c1ccc(NC(=O)c2[nH]cnc2C(=O)NCCCCNC(=O)c2nc[nH]c2C(=O)Nc2ccc(C(=O)OCC)cc2)cc1
AC50 [1]: 2.51 µM (active)

CCOc1ccc(CN2CCC(n3nccc3NC(=O)c3ccccc3OC)CC2)cc1
EC50 [4]: 0.997 µM (active)
EC50 [5]: > 60 µM (not active)

CN(C)S(=O)(=O)c1ccc(-c2csnn2)s1
EC50 [2]: > 195 µM (not active)

COc1cccc(Nc2nc(-c3ccccc3)nc3ccccc23)c1
AC50 [1]: 5.53 µM (active)

Cc1cc(C)c2cc(CN(CCO)C(=O)Nc3ccc(Cl)cc3)c(O)nc2c1
EC50 [6]: 15.8 µM (active)
EC50 [7]: 33.3 µM (active)

CCCCn1c(N)c(N(CCC(C)C)C(=O)c2ccc([N+](=O)[O-])s2)c(=O)[nH]c1=O
EC50 [4]: 0.997 µM (active)
EC50 [5]: > 60 µM (not active)

C[N+]1(C)[C@@H]2CC[C@H]1CC(OC(=O)c1c[nH]c3ccccc13)C2 (stereo partly specified)
AC50 (Cytochrome P450 2D6): 31.6 µM (inconclusive)

CC(=O)NCc1ccc(C(=O)CCl)s1
EC50 [4]: 3.21 µM (active)
EC50 [5]: 3.9 µM (active)

CC(C)(C)NC(=O)CSC(=Nc1ccc(F)cc1)NC#N
AC50 (Cytochrome P450 2D6): 25.1 µM (inconclusive)

COC(=O)c1[nH]c2cc(C)ccc2c1NC(=O)CN1CCCc2ccccc21
EC50 [4]: 0.99 µM (active)
EC50 [5]: > 60 µM (not active)

O=C(O)c1cccc(NC(=O)c2ccccc2NC(=O)c2ccccc2F)c1
EC50 [2]: > 195 µM (not active)

O=C(NCC(c1cccnc1)N1CCN(c2ccccc2F)CC1)Oc1ccccc1 (stereo unspecified)
EC50 [4]: 0.401 µM (active)
EC50 [5]: > 60 µM (not active)

CCCCCCSc1cc(-c2nc3cnccn3c2NCc2ccccc2)ccc1OC
EC50 (Streptokinase A): 16.7 µM (active)
EC50 [3]: 4.3 µM (active)
EC50 (Streptococcus): 12.9 µM (active)

CC(C)(C)c1ccc(Oc2cccc(C3CC(=O)C(C4NCCc5ccccc54)C(=O)C3n3cncn3)c2)cc1 (stereo unspecified)
EC50 (Streptokinase A): > 150 µM (not active)
EC50 [3]: 71.1 µM (active)
EC50 (Streptococcus): > 150 µM (not active)

COc1cc(NC(=O)CN(C)S(=O)(=O)c2ccc3c(c2)CC(C)N3C(C)=O)cc(OC)c1 (stereo unspecified)
EC50 [2]: > 195 µM (not active)

O=C(c1ccccc1)c1ccc(OCCCN2CCCC2)cc1
EC50 [4]: 0.889 µM (active)
EC50 [5]: > 60 µM (not active)

Fc1ccc(Nc2nc(N/N=C/c3ccco3)nc(N3CCCCC3)n2)cc1
EC50 [4]: 2.88 µM (active)
EC50 [5]: 9.91 µM (active)

CCN(CCCNC(=O)CCCOc1cc(=O)n(C)c2ccccc12)Cc1ccccc1
EC50 [4]: 0.281 µM (active)
EC50 [5]: > 60 µM (not active)

COc1cccc(/C=N/NC(=O)CNC(=O)c2cccs2)c1O
AC50 (INS1): 7.39 µM (active)

O=C(/C=C/c1ccc(F)cc1)c1ccccc1Br
AC50 [1]: 3.87 µM (active)

O=C(Nc1cccnc1)c1ccc([N+](=O)[O-])s1
AC50 (INS1): 7.27 µM (active)

Cc1cccc(NC(=O)c2ccc([N+](=O)[O-])s2)c1C
EC50 [4]: 0.691 µM (active)
AC50 (INS1): 12 µM (active)
EC50 [5]: > 60 µM (not active)

c1csc(CN2CC3(CCNCC3)C2)n1
AC50 (Cytochrome P450 2D6): 39.8 µM (inconclusive)

COc1ccc(S(=O)(=O)NCC(c2cccnc2)N2CCN(Cc3ccccc3)CC2)cc1C (stereo unspecified)
EC50 [4]: 0.678 µM (active)
EC50 [5]: > 60 µM (not active)

COc1cc(CCCN2CCNC[C@@H]2Cc2ccc(O)cc2)cc(OC)c1OC
EC50 [2]: > 195 µM (not active)

COc1ccc2nc(COC(=O)c3cccs3)c(C(C)=O)[n+]([O-])c2c1
EC50 [2]: > 195 µM (not active)

C/C(=N\Nc1nc(C(C)(C)C)cs1)c1ccccc1
EC50 [4]: 0.673 µM (active)
EC50 [5]: > 30 µM (not active)

CC1CCN(c2nc(-c3ccc(F)cc3)cc(C(F)(F)F)n2)CC1
EC50 (Streptokinase A): 4.61 µM (active)
EC50 [3]: 11.6 µM (active)
EC50 (Streptococcus): 17.5 µM (active)

CCC1Oc2ccc(C)cc2N(CC(=O)N(Cc2cccnc2)Cc2ccc(C)o2)C1=O (stereo unspecified)
EC50 [4]: 0.166 µM (active)
EC50 [5]: > 30 µM (not active)

Cc1ccccc1NC(S)=NCC1CCN(C(C)c2ccccc2)C1 (stereo unspecified)
EC50 [4]: 1.1 µM (active)
EC50 [5]: > 60 µM (not active)

CCOC(=O)c1cccc(-[n+]2c(-c3ccccc3)cc(-c3ccccc3)cc2-c2ccccc2)c1.[O-][Cl+3]([O-])([O-])[O-]
AC50 (INS1): 2.68 µM (active)

COc1ccc(Cl)cc1N(CC(=O)N1CCN(Cc2ccccc2)CC1)S(C)(=O)=O
EC50 [2]: > 195 µM (not active)

Cc1c(CCOC(=O)c2cc([N+](=O)[O-])cc([N+](=O)[O-])c2)sc[n+]1CC(=O)c1ccccc1
EC50 [4]: 1.97 µM (active)
EC50 [5]: > 60 µM (not active)

Cn1cccc1C(=O)NC(=O)COC(=O)C12CC3CC(CC(O)(C3)C1)C2
EC50 [2]: 0.372 µM (active)

COc1ccccc1CN1CN(S(=O)(=O)c2ccccc2)c2nc3ccccc3nc21
EC50 (Streptokinase A): 55.1 µM (active)
EC50 [3]: 47.6 µM (active)
EC50 (Streptococcus): > 150 µM (not active)

CN1C(=O)C(=Cc2ccc(N3CCCCCC3)o2)C(=O)N(C)C1=S
AC50 (Cytochrome P450 2D6): 20 µM (inconclusive)

COc1ccccc1NS(=O)(=O)c1ccc(C)c(C(N)=O)c1
EC50 [2]: > 195 µM (not active)

COc1ccc(O)c(C(=O)c2cnc3nc4ccccc4n3c2)c1
AC50 (INS1): 1.23 µM (active)

CSc1nnc2ccc(-c3ccc(C)cc3)nn12
EC50 (Streptokinase A): > 150 µM (not active)
EC50 [3]: > 150 µM (not active)
EC50 (Streptococcus): > 150 µM (not active)

O=C(/C=C/c1ccc(F)cc1)c1cc(Br)ccc1O
AC50 [1]: 13.1 µM (active)

COc1cc(NC(=O)CN(C)S(=O)(=O)c2ccc(-c3ccc(O)nn3)s2)cc(OC)c1
EC50 [2]: > 195 µM (not active)

CC(C)C(=O)N1CCN(c2ccccc2NC(=O)COc2ccc(C3CCCCC3)cc2)CC1
EC50 (Streptokinase A): 18.9 µM (inconclusive)
EC50 [3]: 15.8 µM (active)
EC50 (Streptococcus): > 150 µM (not active)

CCOC(=O)Cn1nc(C)c(NC(=O)COc2ccc([N+](=O)[O-])cc2)c1C
EC50 [2]: > 195 µM (not active)

COc1ccc(NC(=O)c2ccc3c(c2)NC(=O)CS3)cc1S(=O)(=O)Nc1ccc(Br)cc1
EC50 (Streptokinase A): > 150 µM (not active)
EC50 [3]: 4.17 µM (active)
EC50 (Streptococcus): 26.3 µM (active)

C[C@@H](N)[C@@H](C)Cc1ccccc1
AC50 (Cytochrome P450 2D6): 3.98 µM (inconclusive)

O=C(c1ccco1)N(CCCN1CCOCC1)c1nc(-c2ccc(F)cc2)cs1
EC50 [4]: 1.28 µM (active)
EC50 [5]: 30.5 µM (active)

CCOC(=O)N1CCN(C(=O)C(CC)n2nc(C)c3sc4ccccc4c3c2=O)CC1 (stereo unspecified)
AC50 (Cytochrome P450 2D6): 39.8 µM (inconclusive)

Cc1ccc(CSCCNS(=O)(=O)c2ccc([N+](=O)[O-])cc2)cc1
EC50 [4]: 0.939 µM (active)
EC50 [5]: > 60 µM (not active)

Cc1ccc(O)c(C(=O)CC(=O)c2ccc(C(C)(C)C)cc2)c1
EC50 [3]: 1.63 µM (active)
EC50 (Streptococcus): 3.66 µM (active)

O=C(CSc1nnc(SCc2cccc3ccccc23)s1)c1ccc2c(c1)OCO2
AC50 (Cytochrome P450 2D6): 7.94 µM (inconclusive)

COc1ccc(O)c(C2=Nc3ccccc3N=C(c3cccs3)C2)c1
EC50 [2]: > 195 µM (not active)

CCCNC(=O)CSc1nc(-c2cccs2)cc(C(F)(F)F)n1
AC50 (Cytochrome P450 2D6): 3.16 µM (inconclusive)

COc1ccc(C(=O)N/N=C(\C)Cn2cnc([N+](=O)[O-])n2)cc1
EC50 [4]: 1.03 µM (active)
EC50 [5]: > 60 µM (not active)
